pIC50: −log10 of the molar value.
Assays:
[1] = molecular target: Epidermal growth factor receptor (Homo sapiens, UniProt P00533); test: BTK and EGFR in Vitro Assay: The BTK and EGFR biochemical assays utilize LANTHASCREEN® Eu Kinase Binding Assays from Thermo Fisher Scientific, measuring the binding of the kinase with a fluorinated tracer. The assay buffer consists of 50 mM HEPES pH 7.5, 0.01% BRU™-35, 10 mM MgCl2, 1 mM EGTA, and 1 mM DTT. […] The compounds are tested in 10 point dose response curves (100 μM-0.005 μM) with a maximum DMSO concentration of 1%. The assays are performed in 20 μL in low-volume 384-well white proxiplates. […] The signal ratio is converted to percent inhibition using the following equation: % Inhibition=100−[(Test Compound−Median Minimum)/(Median Maximum−Median Minimum)×100].
Epidermal growth factor receptor, sequence (P00533 whole entry): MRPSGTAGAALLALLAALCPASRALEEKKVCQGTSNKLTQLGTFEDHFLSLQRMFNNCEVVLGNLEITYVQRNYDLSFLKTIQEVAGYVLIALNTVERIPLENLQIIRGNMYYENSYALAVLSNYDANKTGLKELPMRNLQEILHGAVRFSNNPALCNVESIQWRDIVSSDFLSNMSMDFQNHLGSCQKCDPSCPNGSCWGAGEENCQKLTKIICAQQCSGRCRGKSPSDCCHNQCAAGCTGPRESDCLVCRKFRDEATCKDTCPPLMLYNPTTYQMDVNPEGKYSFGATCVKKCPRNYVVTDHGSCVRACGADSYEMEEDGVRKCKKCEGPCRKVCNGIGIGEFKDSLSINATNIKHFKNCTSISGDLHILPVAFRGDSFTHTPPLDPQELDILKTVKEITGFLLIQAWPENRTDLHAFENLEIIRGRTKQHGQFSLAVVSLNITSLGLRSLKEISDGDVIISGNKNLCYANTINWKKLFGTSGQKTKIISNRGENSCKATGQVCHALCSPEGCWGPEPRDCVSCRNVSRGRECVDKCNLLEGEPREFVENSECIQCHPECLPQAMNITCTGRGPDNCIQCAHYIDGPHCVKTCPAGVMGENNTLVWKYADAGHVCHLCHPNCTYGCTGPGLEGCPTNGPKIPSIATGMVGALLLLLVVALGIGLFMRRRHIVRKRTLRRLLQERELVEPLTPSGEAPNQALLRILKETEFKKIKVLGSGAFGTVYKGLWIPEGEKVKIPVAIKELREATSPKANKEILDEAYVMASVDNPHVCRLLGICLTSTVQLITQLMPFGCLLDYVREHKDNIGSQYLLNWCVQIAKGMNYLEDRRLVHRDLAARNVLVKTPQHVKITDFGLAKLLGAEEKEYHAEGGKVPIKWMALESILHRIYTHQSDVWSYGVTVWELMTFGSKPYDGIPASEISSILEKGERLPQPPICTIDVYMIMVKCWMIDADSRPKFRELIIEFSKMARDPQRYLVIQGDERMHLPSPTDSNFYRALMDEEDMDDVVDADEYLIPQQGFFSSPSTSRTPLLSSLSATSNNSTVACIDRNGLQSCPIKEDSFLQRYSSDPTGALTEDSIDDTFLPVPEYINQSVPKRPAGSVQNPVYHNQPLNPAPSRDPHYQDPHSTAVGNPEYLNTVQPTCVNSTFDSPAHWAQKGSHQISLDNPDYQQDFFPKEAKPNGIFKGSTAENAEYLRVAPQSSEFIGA

[2] = molecular target: Tyrosine-protein kinase BTK (Homo sapiens, UniProt Q06187); test: BTK and EGFR in Vitro Assay: The BTK and EGFR biochemical assays utilize LANTHASCREEN® Eu Kinase Binding Assays from Thermo Fisher Scientific, measuring the binding of the kinase with a […] tracer. The assay buffer consists of 50 mM HEPES pH 7.5, 0.01% BRU™-35, 10 mM MgCl2, 1 mM EGTA, and 1 mM DTT. The test compounds are diluted and added to the assay plate with a Labcyte ECHO® 555 liquid handler. The compounds are tested in 10 point dose response curves (100 μM-0.005 μM) with a maximum DMSO concentration of 1%. The assays are performed in 20 μL in low-volume 384-well white proxiplates. For the BTK assay, the concentration of full-length His-labeled BTK in the assay is 5 nM, the Eu-anti-His antibody is 2 nM, and the kinase tracer 236 is 60 nM. For the EGFR assay, the concentration of truncated (amino acids 668-1210) GST-labeled EGFR is 5 nM, the Eu-anti-GST antibody is 2 nM, and the kinase tracer 199 is 10 nM. The components of the assay (compound, enzyme/antibody, tracer) are assembled and incubated for 30 min prior to being read on a Perkin-Elmer EnVision with excitation at 340 nm, tracer emission at 665 nm, and antibody emission at 615 nm. The signal ratio is converted to percent inhibition using the following equation: % Inhibition=100−[(Test Compound−Median Minimum)/(Median Maximum−Median Minimum)×100].
Tyrosine-protein kinase BTK, sequence (Q06187 whole entry, the tested form may be a part): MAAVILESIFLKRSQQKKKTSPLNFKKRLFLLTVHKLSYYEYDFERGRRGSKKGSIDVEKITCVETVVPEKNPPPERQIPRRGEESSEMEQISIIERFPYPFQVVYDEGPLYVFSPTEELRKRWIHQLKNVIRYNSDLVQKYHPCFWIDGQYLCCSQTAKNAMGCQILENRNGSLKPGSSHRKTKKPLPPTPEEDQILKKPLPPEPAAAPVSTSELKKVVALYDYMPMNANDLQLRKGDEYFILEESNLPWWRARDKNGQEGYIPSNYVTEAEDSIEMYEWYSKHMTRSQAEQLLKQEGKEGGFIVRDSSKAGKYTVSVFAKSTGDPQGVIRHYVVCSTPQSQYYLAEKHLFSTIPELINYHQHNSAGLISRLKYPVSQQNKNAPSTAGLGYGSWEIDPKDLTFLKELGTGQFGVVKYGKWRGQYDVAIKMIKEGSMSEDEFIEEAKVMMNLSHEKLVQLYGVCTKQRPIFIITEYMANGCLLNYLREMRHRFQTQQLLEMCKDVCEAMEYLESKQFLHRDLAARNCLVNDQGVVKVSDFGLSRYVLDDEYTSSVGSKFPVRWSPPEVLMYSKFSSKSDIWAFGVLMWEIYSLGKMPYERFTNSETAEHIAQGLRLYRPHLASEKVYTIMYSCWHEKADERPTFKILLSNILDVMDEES

| pIC50 [1] | pIC50 [2] | Structure (SMILES) |
| --- | --- | --- |
| 4.79 | 7.48 | C=CC(=O)N1CC[C@H](Nc2cncc(-c3cnc(Nc4cccc(C)n4)nc3)c2)C1 |
| 4.55 | 7.26 | C=CC(=O)N1CC[C@H](Nc2cncc(-c3cnc(Oc4cccc(OC(F)F)c4)nc3)c2)C1 |
| 5.06 | 8.22 | C=CC(=O)N1CC[C@H](Nc2cncc(-c3cnc(Nc4cccc(OC(F)F)c4)nc3)c2)C1 |
| 5.19 | 7.12 | C=CC(=O)N1CC(Nc2cncc(-c3cnc(Oc4cccc(C#N)c4)nc3)c2)C1 |
